Assay: in vitro
Details: human, hek293t cells

Cc1ccc(NC(=O)C(C#N)=Cc2ccc3c(c2)OCCO3)c(C)c1 [9-H03, 2-cyano-3-(2,3-dihydro-1,4-benzodioxin-6-yl)-N-(2,4-dimethylphenyl)prop-2-enamide]
viability at 48 h, 25 µM: 107%

CC(NC(=O)C(C#N)=Cc1ccco1)c1cccc(-n2ccnc2)c1 (centres unmarked) [9-H04, 2-cyano-3-(furan-2-yl)-N-{1-[3-(1H-imidazol-1-yl)phenyl]ethyl}prop-2-enamide]
viability at 48 h, 25 µM: 127%

C=CCNC(=O)C(C#N)=Cc1ccccc1OC [9-H05, 2-cyano-3-(2-methoxyphenyl)-N-(prop-2-en-1-yl)prop-2-enamide]
viability at 48 h, 25 µM: 114%

Cc1ncsc1C=C(C#N)C(=O)NCCc1ccccc1 [9-H06, 2-cyano-3-(4-methyl-1,3-thiazol-5-yl)-N-(2-phenylethyl)prop-2-enamide]
viability at 48 h, 25 µM: 99.1%

C=CCNC(=O)C(C#N)=Cc1cc(F)ccc1F [9-H07, 2-cyano-3-(2,5-difluorophenyl)-N-(prop-2-en-1-yl)prop-2-enamide]
viability at 48 h, 25 µM: 111%

COCCNC(=O)C(C#N)=Cc1cccc(O)c1 [9-H08, 2-cyano-3-(3-hydroxyphenyl)-N-(2-methoxyethyl)prop-2-enamide]
viability at 48 h, 25 µM: 121%

COCC(C)NC(=O)C(C#N)=Cc1ccc(F)c(C)c1 (centres unmarked) [9-H09, 2-cyano-3-(4-fluoro-3-methylphenyl)-N-(1-methoxypropan-2-yl)prop-2-enamide]
viability at 48 h, 25 µM: 108%

N#CC(=Cc1ccc(-c2ccccc2F)o1)C(=O)NCc1ccccc1 [9-H10, N-benzyl-2-cyano-3-[5-(2-fluorophenyl)furan-2-yl]prop-2-enamide]
viability at 48 h, 25 µM: 92.7%

CCCCNC(=O)C(C#N)=Cc1cccc(Cl)c1Cl [9-H11, N-butyl-2-cyano-3-(2,3-dichlorophenyl)prop-2-enamide]
viability at 48 h, 25 µM: 24.1%

Cc1nccn1Cc1ccc(NC(=O)C(C#N)=Cc2ccco2)cc1 [9-H12, 2-cyano-3-(furan-2-yl)-N-{4-[(2-methyl-1H-imidazol-1-yl)methyl]phenyl}prop-2-enamide]
viability at 48 h, 25 µM: 93%

CCCCNC(=O)C(C#N)=Cc1ccc(Cl)cc1 [9-H13, N-butyl-3-(4-chlorophenyl)-2-cyanoprop-2-enamide]
viability at 48 h, 25 µM: 72.9%

COc1ccc(C=C(C#N)C(N)=O)c(Cl)c1OC [9-H14, 3-(2-chloro-3,4-dimethoxyphenyl)-2-cyanoprop-2-enamide]
viability at 48 h, 25 µM: 105%

N#CC(=Cc1ccc(N2CCCCCC2)cc1)C(=O)NCC1CCCO1 (centres unmarked) [9-H15, 3-[4-(azepan-1-yl)phenyl]-2-cyano-N-[(oxolan-2-yl)methyl]prop-2-enamide]
viability at 48 h, 25 µM: 71.9%

N#CC(=Cc1ccc(Cl)cc1)C(=O)Nc1ccccn1 [9-H16, 3-(4-chlorophenyl)-2-cyano-N-(pyridin-2-yl)prop-2-enamide]
viability at 48 h, 25 µM: 128%

N#CC(=Cc1ccc(-c2ccc(F)cc2)o1)C(=O)NC1CCCCC1 [9-H17, 2-cyano-N-cyclohexyl-3-[5-(4-fluorophenyl)furan-2-yl]prop-2-enamide]
viability at 48 h, 25 µM: 77.1%

N#CC(=Cc1c(C2CC2)nc2sccn12)C(=O)NC1CCCCC1 [9-H18, 2-cyano-N-cyclohexyl-3-{6-cyclopropylimidazo[2,1-b][1,3]thiazol-5-yl}prop-2-enamide]
viability at 48 h, 25 µM: 86.8%

N#CC(=Cc1ccc(Cl)cc1Cl)C(=O)Nc1nccs1 [9-H19, 2-cyano-3-(2,4-dichlorophenyl)-N-(1,3-thiazol-2-yl)prop-2-enamide]
viability at 48 h, 25 µM: 121%

N#CC(=Cc1ccco1)C(=O)NS(=O)(=O)c1cccc2cnccc12 [9-H20, 2-cyano-3-(furan-2-yl)-N-(isoquinoline-5-sulfonyl)prop-2-enamide]
viability at 48 h, 25 µM: 105%

COc1cc(C=C(C#N)C(=O)NC2CCCCC2C)cc(OC)c1O (centres unmarked) [9-H21, 2-cyano-3-(4-hydroxy-3,5-dimethoxyphenyl)-N-(2-methylcyclohexyl)prop-2-enamide]
viability at 48 h, 25 µM: 95.8%

N#CC(=Cc1ccsc1)C(=O)NCc1ccco1 [9-H22, 2-cyano-N-[(furan-2-yl)methyl]-3-(thiophen-3-yl)prop-2-enamide]
viability at 48 h, 25 µM: 123%

CCCn1c(C)cc(C=C(C#N)C(=O)N2CCCC2)c1C [9-I03, 3-(2,5-dimethyl-1-propyl-1H-pyrrol-3-yl)-2-(pyrrolidine-1-carbonyl)prop-2-enenitrile]
viability at 48 h, 25 µM: 134%

N#CC(=Cc1ccc(C(F)(F)F)cc1)C(=O)Nc1ccccc1 [9-I04, 2-cyano-N-phenyl-3-[4-(trifluoromethyl)phenyl]prop-2-enamide]
viability at 48 h, 25 µM: 93.7%

COc1cc(CNC(=O)C(C#N)=Cc2ccco2)c2ccccc2n1 [9-I05, 2-cyano-3-(furan-2-yl)-N-[(2-methoxyquinolin-4-yl)methyl]prop-2-enamide]
viability at 48 h, 25 µM: 114%

N#CC(=Cc1ccsc1)C(=O)Nc1ccc(Cl)cc1 [9-I06, N-(4-chlorophenyl)-2-cyano-3-(thiophen-3-yl)prop-2-enamide]
viability at 48 h, 25 µM: 112%

Cc1nn(C)c(C)c1C=C(C#N)C(=O)Nc1ccccc1F [9-I07, 2-cyano-N-(2-fluorophenyl)-3-(1,3,5-trimethyl-1H-pyrazol-4-yl)prop-2-enamide]
viability at 48 h, 25 µM: 122%

CN(C)c1ccc(C=C(C#N)C(=O)Nc2ccccc2C(=O)O)cc1 [9-I08, 2-{2-cyano-3-[4-(dimethylamino)phenyl]prop-2-enamido}benzoic acid]
viability at 48 h, 25 µM: 95.5%

CC(C)NC(=O)C(C#N)=Cc1ccc(F)cc1 [9-I09, 2-cyano-3-(4-fluorophenyl)-N-(propan-2-yl)prop-2-enamide]
viability at 48 h, 25 µM: 119%

COc1cc(C=C(C#N)C(=O)NCc2ccccc2)cc2c1OCCO2 [9-I10, N-benzyl-2-cyano-3-(8-methoxy-2,3-dihydro-1,4-benzodioxin-6-yl)prop-2-enamide]
viability at 48 h, 25 µM: 118%

CC(C)NC(=O)C(C#N)=Cc1ccc(C(C)C)cc1 [9-I11, 2-cyano-N-(propan-2-yl)-3-[4-(propan-2-yl)phenyl]prop-2-enamide]
viability at 48 h, 25 µM: 78.1%

Cc1cc(C=C(C#N)C(N)=O)c(C)n1-c1cccc2ccccc12 [9-I12, 2-cyano-3-[2,5-dimethyl-1-(naphthalen-1-yl)-1H-pyrrol-3-yl]prop-2-enamide]
viability at 48 h, 25 µM: 86.9%

CCOc1cc(C=C(C#N)C(=O)NC(C)C)cc(Cl)c1O [9-I13, 3-(3-chloro-5-ethoxy-4-hydroxyphenyl)-2-cyano-N-(propan-2-yl)prop-2-enamide]
viability at 48 h, 25 µM: 87.3%

N#CC(=Cc1cccnc1)C(=O)NCc1ccccc1 [9-I14, N-benzyl-2-cyano-3-(pyridin-3-yl)prop-2-enamide]
viability at 48 h, 25 µM: 113%

Cc1c(C=C(C#N)C(=O)NCc2ccccc2)cc(C#N)n1C [9-I15, N-benzyl-2-cyano-3-(5-cyano-1,2-dimethyl-1H-pyrrol-3-yl)prop-2-enamide]
viability at 48 h, 25 µM: 134%

N#CC(=Cc1ccc(O)cc1)C(=O)NCCc1c(F)cccc1F [9-I16, 2-cyano-N-[2-(2,6-difluorophenyl)ethyl]-3-(4-hydroxyphenyl)prop-2-enamide]
viability at 48 h, 25 µM: 121%

Cc1cc(C)c(NC(=O)C(C#N)=Cc2ccc(C)o2)c(C)c1 [9-I17, 2-cyano-3-(5-methylfuran-2-yl)-N-(2,4,6-trimethylphenyl)prop-2-enamide]
viability at 48 h, 25 µM: 94.3%

CC1=C(C#N)C(=O)N(C)C(=O)C1=Cc1ccc(-c2ccc(F)cc2)o1 [9-I18, 5-{[5-(4-fluorophenyl)furan-2-yl]methylidene}-1,4-dimethyl-2,6-dioxo-1,2,5,6-tetrahydropyridine-3-carbonitrile]
viability at 48 h, 25 µM: 125%

Cc1cccc(C=C(C#N)C(=O)Nc2ccc(F)cc2)c1 [9-I19, 2-cyano-N-(4-fluorophenyl)-3-(3-methylphenyl)prop-2-enamide]
viability at 48 h, 25 µM: 113%

N#CC(=Cc1c(F)cccc1F)C(=O)Nc1ccccc1Cl [9-I20, N-(2-chlorophenyl)-2-cyano-3-(2,6-difluorophenyl)prop-2-enamide]
viability at 48 h, 25 µM: 114%

CC(C)(C)c1ccc(C=C(C#N)C(=O)Nc2ccc(C(=O)O)cc2)cc1 [9-I21, 4-[3-(4-tert-butylphenyl)-2-cyanoprop-2-enamido]benzoic acid]
viability at 48 h, 25 µM: 128%

Cc1ccccc1NC(=O)C(C#N)=Cc1c(Cl)nc2ccccn12 [9-I22, 3-{2-chloroimidazo[1,2-a]pyridin-3-yl}-2-cyano-N-(2-methylphenyl)prop-2-enamide]
viability at 48 h, 25 µM: 134%

COc1cc(C=C(C#N)C(=O)Nc2nccs2)cc(OC)c1 [9-J03, 2-cyano-3-(3,5-dimethoxyphenyl)-N-(1,3-thiazol-2-yl)prop-2-enamide]
viability at 48 h, 25 µM: 104%

CC(NC(=O)C(C#N)=Cc1ccco1)c1cccc(-n2cccn2)c1 (centres unmarked) [9-J04, 2-cyano-3-(furan-2-yl)-N-{1-[3-(1H-pyrazol-1-yl)phenyl]ethyl}prop-2-enamide]
viability at 48 h, 25 µM: 95.9%

Cc1ccc(C=C(C#N)C(=O)Nc2cccc3ncccc23)cc1 [9-J05, 2-cyano-3-(4-methylphenyl)-N-(quinolin-5-yl)prop-2-enamide]
viability at 48 h, 25 µM: 123%

CCCCNC(=O)C(C#N)=Cc1ccc(C)s1 [9-J06, N-butyl-2-cyano-3-(5-methylthiophen-2-yl)prop-2-enamide]
viability at 48 h, 25 µM: 94.4%

CC(=Cc1ccccc1)C=C(C#N)C(=O)Nc1ccc2c(c1)OCCO2 [9-J07, 2-cyano-N-(2,3-dihydro-1,4-benzodioxin-6-yl)-4-methyl-5-phenylpenta-2,4-dienamide]
viability at 48 h, 25 µM: 79.5%

C=CCNC(=O)C(C#N)=CC=Cc1ccccc1 [9-J08, 2-cyano-5-phenyl-N-(prop-2-en-1-yl)penta-2,4-dienamide]
viability at 48 h, 25 µM: 96.5%

CC1CN(c2ccc(NC(=O)C(C#N)=Cc3ccco3)cc2)CC(C)O1 (centres unmarked) [9-J09, 2-cyano-N-[4-(2,6-dimethylmorpholin-4-yl)phenyl]-3-(furan-2-yl)prop-2-enamide]
viability at 48 h, 25 µM: 109%

N#CC(=Cc1coc2ccccc2c1=O)C(=O)NCCc1ccccc1 [9-J10, 2-cyano-3-(4-oxo-4H-chromen-3-yl)-N-(2-phenylethyl)prop-2-enamide]
viability at 48 h, 25 µM: 107%

CCCCNC(=O)C(C#N)=Cc1c(Cl)cccc1Cl [9-J11, N-butyl-2-cyano-3-(2,6-dichlorophenyl)prop-2-enamide]
viability at 48 h, 25 µM: 25.1%

N#CC(=Cc1c(F)cccc1F)C(=O)Nc1ccccc1F [9-J12, 2-cyano-3-(2,6-difluorophenyl)-N-(2-fluorophenyl)prop-2-enamide]
viability at 48 h, 25 µM: 103%
